Measurements published in patent US20250339531A1, “DUX4 POLYPEPTIDES AND NUCLEIC ACIDS FOR TREATING INFLAMMATORY AND AUTOIMMUNE CONDITIONS” (Fred Hutchinson Cancer Center, priority 2021, published 2025).
Entries after “also recorded” stand apart in the source; their conditions may differ.

Assays:
Type in all cases: cell-based, human
[1] = test system: IFIH1, DDX58, cGAS and Type-1 IFN pathways; assay: ISG induction by IFNβ, poly(I:C), RIG-I ligand or cGAMP, RT-qPCR in MB135-iDUX4 cells; settings: MB135iDUX4 cells ± doxycycline
Experimental: All myoblast experiments were conducted in immortalized MB135 or MB200 myoblast cell lines (isolated from a control or FSHD2 subject, respectively cultured in Ham's F-10 Nutrient Mix (Gibco) supplemented with 15% fetal bovine serum (Hyclone), 100 U/100 μg/ml penicillin/streptomycin (Gibco), 1 μM dexamethasone (Sigma), and 10 ng/ml recombinant human basic fibroblast growth factor (PeproTech). To differentiate the myoblasts to myotubes, media was changed to DMEM supplemented with 10 μg/ml insulin (Sigma) and 10 μg/ml transferrin (Sigma). Cell lines containing doxycycline-inducible transgenes were additionally cultured with 2 μg/mL puromycin (Sigma). Transgenes were induced with 1 μg/mL of doxycycline (Sigma) for 4 hours prior to other treatments for a total of 20 hrs. The Kitra-SRS cells (RRID:CVCL_YI69) were provided by Dr. H. Otani and Osaka University (Nakai et al., 2019) and were cultured in DMEM supplemented with 10% fetal bovine serum (Hyclone) and 100 U/100 μg/ml penicillin/streptomycin (Gibco). Biological replicates consisted of independent but parallel experiments, such as simultaneously stimulating three cell culture plates with IFNγ. Technical replicates consisted of repeat measurements of the same biological sample, such as loading the same biological sample in triplicate for analysis by RT-qPCR. […]

[2] = test system: immunoproteasome subunits PSMB8, PSMB9, and PSMB10; assay: Immunoblot of IFNG-induced immunoproteasome subunits; settings: for suppression of IFNG-induced immunoproteasome subunit protein, pulsed protocol / suppression of IFNG-induced immunoproteasome subunit protein, continuous protocol: MB135 cells; for suppression of IFNG-induced immunoproteasome subunit protein, pulsed protocol: 4 h doxycycline pulse, later IFNG 16 h; for suppression of IFNG-induced immunoproteasome subunit protein, continuous protocol: doxycycline 20 h, IFNG last 16 h
Experimental: In the “continuous” protocol (similar to the experiments shown in the prior FIGS. 1, 2, 4, 5, and 6), doxycycline is added to induce DUX4 expression at time 0 and four hours later IFNG is added for an additional 16 hours, resulting in 20 hours of continuous DUX4 induction with the last 16 hrs exposed to IFNG.
In the “pulsed” protocol, doxycycline is added at time 0 to induce DUX4 expression, but after four hours the media is changed to remove the doxycycline, resulting in a pulse of DUX4 mRNA and protein sufficient to induce DUX4 target gene expression (see Resnick et al., Cell Rep. 2019 Nov. 12; 29(7):1812-1820.e5). IFNG is added at 28 hours for a period of 16 hours prior to harvesting the cells. […] This difference is not likely to be due to different amounts of the DUX4 and mutant DUX4 proteins because at the time of harvest both DUX4 and the F67A mutant DUX4 protein levels have declined to similarly low amounts relative to the continuous protocol, but could be due to the activation of DUX4 target genes by the full-length DUX4 since the H3.X/Y proteins show persistent expression in the pulsed protocol.
(§1) Protein samples were harvested in RIPA buffer [150 mM NaCl, 1% NP-40, 0.5% Na-deocycholate, 1% SDS, 25 mM Tris-HCl pH7.4] supplemented with protease and phosphatase inhibitor tablets (Pierce), followed by sonication in Diagenode Bioruptor. Lysate was cleared by centrifugation at 16000×g and quantified using a Pierce BCA assay (Thermo Fisher Scientific). Samples were run on NuPAGE precast polyacrylamide gels (Invitrogen) and transferred to PVDF membrane. Membranes were blocked in PBS containing 0.1% Tween-20 and 5% non-fat dry milk before overnight incubation at 4° C. with primary antibodies (see resource table for a list of antibodies used in this study). Membranes were incubated with horseradish peroxidase-conjugated secondary antibodies for 1 hour at room temperature and SuperSignal chemiluminescent substrate (Thermo Scientific) was used for detection on film with a Mini-medical 90 processor. Membranes were stripped with Restore Western Blot Stripping Buffer (Pierce).

[3] = test system: eIF2-alpha, RPS6, 4EBP1, eIF4E, eEF2; assay: Immunoblot of translational regulators; settings: MB135 myoblasts, 4-hour pulse of doxycycline
Experimental: as §1

T-cell activation = assay: Activation of NYESO TCR-engineered T cells by NYESO expressing MEL375 cells (IFNG and IL-2 secretion); settings: pulse-expression 24 hrs prior to T-cell addition
Source text: To determine whether the combined short- and long-term mechanisms of MHC protein expression in response to cytokine signaling is sufficient to prevent T-cell activation, NYESO expressing MEL375 cells were used in an assay with T-cells engineered with the TCR (T Cell Receptor) for the NYESO antigen and measured T-cell activation by secretion of IFNG and IL-2.

“DUX4: human DUX4 protein SEQ ID NO:3 expressed from doxycycline inducible codon altered transgene SEQ ID NO:2” was tested, and the “suppression of ISG induction by innate immune stimuli (poly(I:C), short dsRNA/RIG-I ligand, cGAMP, IFNβ)” value [1] was “blunted the induction of these genes by each of the stimulated pathways; also recorded: substantially blunted the ISG induction to all treatments; also recorded: pathways that rely on IRFs and STATs are both blocked; also recorded: suppressed the induction of a subset of the panel of ISG genes induced by each ligand; also recorded: CXCL9 was induced by IFNβ, poly(I:C), and the RIG-I ligand but not suppressed by DUX4”, the “suppression of IFNG-induced immunoproteasome subunit protein, pulsed protocol” value [2] was “completely blocked; also recorded: elicited the same degree of suppression when assayed forty-four hours later; also recorded: completely block protein accumulation of PSMB9 and PSMB10” and the “suppression of IFNG-induced immunoproteasome subunit protein, pulsed protocol” value ([2]; listed as wildtype DUX4) was “suppressed MHC-I and immunoproteasome subunits”. For the same substance, the “suppression of IFNG-induced immunoproteasome subunit protein, continuous protocol” value [2] was “completely blocked; also recorded: IFNG-induction of MHC-I and the immunoproteasome was suppressed; also recorded: completely block protein accumulation of PSMB9 and PSMB10”, the “suppression of IFNG-induced immunoproteasome subunit protein, continuous protocol” value ([2]; listed as wildtype DUX4) was “suppressed IFNG-induced MHC-I and the immunoproteasome expression” and the “suppression of PSMB9 in PKR knockout background” value ([2]; MB135iDUX4 WT and PKR-KO cells, continuous or pulsed) was “evident in both wild-type (WT) and PKR-KO cells”. For the same substance, the “status of translational regulators after a pulse of transgene” value [3] was “sufficient to induce phosphorylation of eIF2-alpha; also recorded: brief reduction in phosphorylation of ribosomal protein S6 (RPS6); also recorded: prolonged dephosphorylation of 4EBP1 and a correlated loss of phosphorylated eukaryotic initiation factor 4E (eIF4E); also recorded: increased phosphorylation of eukaryotic elongation factor 2 (eEF2) on threonine 56; also recorded: enhanced phosphorylation of eEF2 at Thr56 and reduced phosphorylation of eIF4E at Ser209” and the “T-cell activation (IFNG and IL-2 secretion)” value (T-cell activation) was “completely blocks the T-cell activation by the NYESO expressing MEL375 cells”.
